Results published in ChEMBL document CHEMBL3045065, “Synthesis and analgesic effects of 2-(2-carboxyphenylsulfanyl)-N-(4-substitutedphenyl)acetamide derivatives” (Med Chem Res, 2011).

Legend:
Mus musculus [1] = assay: Neurotoxicity in Mus musculus Swiss albino (mouse) assessed as falling latency at 100 mg/kg, ip by Rota-Rod test; type: toxicity, organism-based; design: dose 100 mg/kg, route intraperitoneal; settings: in vivo
Mus musculus [2] = assay: Toxicity in Mus musculus Swiss albino (mouse) assessed as mortality at 100 mg/kg, ip; type: organism-based; design: dose 100 mg/kg, route intraperitoneal; settings: in vivo
Mus musculus [3] = assay: Neurotoxicity in Mus musculus Swiss albino (mouse) assessed as effect on vertical locomotory activity at 100 mg/kg, ip; type: toxicity, organism-based; design: dose 100 mg/kg, route intraperitoneal; settings: in vivo
Mus musculus [4] = assay: Neurotoxicity in Mus musculus Swiss albino (mouse) assessed as effect on horizontal locomotory activity at 100 mg/kg, ip; type: toxicity, organism-based; design: dose 100 mg/kg, route intraperitoneal; settings: in vivo
Mus musculus [5] = assay: Analgesic activity in Mus musculus Swiss albino (mouse) assessed as inhibition of acetic acid-induced writhing at 100 mg/kg, ip measured after 30 min relative to control; type: functional; settings: 0.5 h, route intraperitoneal
Mus musculus [6] = assay: Analgesic activity in Mus musculus Swiss albino (mouse) at 100 mg/kg, ip measured after 30 min by tail clip test; type: functional; settings: route intraperitoneal
Mus musculus [7] = assay: Analgesic activity in Mus musculus Swiss albino (mouse) assessed as paw licking and jumping latency at 100 mg/kg, ip measured after 30 min by hot plate test; type: functional; settings: route intraperitoneal

SMILES: O=C(CSc1ccccc1C(=O)O)Nc1ccccc1
- Activity (Mus musculus [1]): Non-toxic
- Activity (Mus musculus [2]): Non-toxic
- Activity (Mus musculus [3]): Non-toxic
- Activity (Mus musculus [4]): Non-toxic
- inhibition in vivo at 100 mg/kg (Mus musculus [5]): 54.8%
- MPE (Mus musculus [6]): 52.1%
- Activity (Mus musculus [7]): 79.98%

SMILES: O=C(CSc1ccccc1C(=O)O)Nc1ccc(Cl)cc1
- Activity (Mus musculus [1]): Non-toxic
- Activity (Mus musculus [2]): Non-toxic
- Activity (Mus musculus [3]): Non-toxic
- Activity (Mus musculus [4]): Non-toxic
- inhibition in vivo at 100 mg/kg (Mus musculus [5]): 49.7%
- MPE (Mus musculus [6]): 43.94%
- Activity (Mus musculus [7]): 65.73%

SMILES: O=C(CSc1ccccc1C(=O)O)Nc1ccc(Br)cc1
- Activity (Mus musculus [1]): Non-toxic
- Activity (Mus musculus [2]): Non-toxic
- Activity (Mus musculus [3]): Non-toxic
- Activity (Mus musculus [4]): Non-toxic
- inhibition in vivo at 100 mg/kg (Mus musculus [5]): 9.04%
- MPE (Mus musculus [6]): 13.71%
- Activity (Mus musculus [7]): 8.48%

SMILES: Cc1ccc(NC(=O)CSc2ccccc2C(=O)O)cc1
- Activity (Mus musculus [1]): Non-toxic
- Activity (Mus musculus [2]): Non-toxic
- Activity (Mus musculus [3]): Non-toxic
- Activity (Mus musculus [4]): Non-toxic
- inhibition in vivo at 100 mg/kg (Mus musculus [5]): 76.3%
- MPE (Mus musculus [6]): 72.31%
- Activity (Mus musculus [7]): 89.37%

SMILES: COc1ccc(NC(=O)CSc2ccccc2C(=O)O)cc1
- Activity (Mus musculus [1]): Non-toxic
- Activity (Mus musculus [2]): Non-toxic
- Activity (Mus musculus [3]): Non-toxic
- Activity (Mus musculus [4]): Non-toxic
- inhibition in vivo at 100 mg/kg (Mus musculus [5]): 27.7%
- MPE (Mus musculus [6]): 25.01%
- Activity (Mus musculus [7]): 35.12%

SMILES: O=C(CSc1ccccc1C(=O)O)Nc1ccc(C(=O)O)cc1
- Activity (Mus musculus [1]): Non-toxic
- Activity (Mus musculus [2]): Non-toxic
- Activity (Mus musculus [3]): Non-toxic
- Activity (Mus musculus [4]): Non-toxic
- inhibition in vivo at 100 mg/kg (Mus musculus [5]): 20.3%
- MPE (Mus musculus [6]): 17.05%
- Activity (Mus musculus [7]): 18.07%

SMILES: CC(=O)Nc1ccc(O)cc1 [ACETAMINOPHEN]
- Activity (Mus musculus [1]): Non-toxic
- Activity (Mus musculus [2]): Non-toxic
- Activity (Mus musculus [3]): Non-toxic
- Activity (Mus musculus [4]): Non-toxic
- inhibition in vivo at 100 mg/kg (Mus musculus [5]): 29.4%
- Activity (Mus musculus [7]): 51.61%

SMILES: O=C(O)c1ccccc1S [THIOSALICYLIC ACID]
- Activity (Mus musculus [1]): Non-toxic
- Activity (Mus musculus [2]): Non-toxic
- Activity (Mus musculus [3]): Non-toxic
- Activity (Mus musculus [4]): Non-toxic
- inhibition in vivo at 100 mg/kg (Mus musculus [5]): 33.9%
- MPE (Mus musculus [6]): 40.37%
- Activity (Mus musculus [7]): 62.49%
